Measurements as given in US3968204A, “Antibiotic A-2315” (priority 1975, dated 1976).
≈ marks a conversion by molar mass, not a printed value.

Columns and labels:
[1] = tested on: Salmonella typhimurium; test: Agar-dilution MIC; type: cell-based; details: Salmonella enterica, Agar-Dilution Method
[2] = tested on: Salmonella typhosa; test: Disc-plate MIC; details: Disc-Plate Method
[3] = tested on: Bacteriodes fragilis ssp. thetaotamicron; test: MIC, anaerobic bacteria; type: cell-based
[4] = tested on: Salmonella typhosa; test: Agar-dilution MIC; details: Salmonella enterica
[5] = tested on: Clostridium ramosum; test: MIC, anaerobic bacteria; type: cell-based; details: Thomasclavelia ramosa
[6] = tested on: Clostridium septicum; test: MIC, anaerobic bacteria; type: cell-based
[7] = tested on: Bacteriodes fragilis ssp. fragilis; test: MIC, anaerobic bacteria; type: cell-based
[8] = tested on: Veillonella alcalescens; test: MIC, anaerobic bacteria; type: cell-based; details: Veillonella parvula

Structure (SMILES): CC1=CC(O)CC(O)Cc2nc(co2)C(=O)NC(C)C(=O)OC(C(C)C)C(C)C=CC(=O)NCC=C1 (centres unmarked) [Factor A]
- MIC [1]: > 100 µg/mL
- MIC [2]: 12.5 μg/disc
- MIC [3]: 128 µg/mL (≈ 254 µM)
- MIC [4]: > 100 µg/mL
- MIC [5]: 8 µg/mL (≈ 15.9 µM)
- MIC [6]: 32 µg/mL (≈ 63.5 µM)
- MIC [7]: 128 µg/mL (≈ 254 µM)
- MIC [8]: 16 µg/mL (≈ 31.8 µM)
